Measured values as given in ChEMBL document CHEMBL1126431, “The effect of N-acyl substituents on the stability of monocyclic -lactam inhibitors of human leukocyte elastase” (Bioorg Med Chem Lett, 1992).

Assays:
[1] = Half-life period was determined, by hydrolyzing under mild conditions (pH = 8.0, 25 degrees Celsius); assay type: ADME
Neutrophil elastase = biological target: T1, Neutrophil elastase (Homo sapiens, UniProt P08246); assay: Concentration required for inhibition of human leukocyte elastase (HLE)
T1 sequence (P08246 whole entry): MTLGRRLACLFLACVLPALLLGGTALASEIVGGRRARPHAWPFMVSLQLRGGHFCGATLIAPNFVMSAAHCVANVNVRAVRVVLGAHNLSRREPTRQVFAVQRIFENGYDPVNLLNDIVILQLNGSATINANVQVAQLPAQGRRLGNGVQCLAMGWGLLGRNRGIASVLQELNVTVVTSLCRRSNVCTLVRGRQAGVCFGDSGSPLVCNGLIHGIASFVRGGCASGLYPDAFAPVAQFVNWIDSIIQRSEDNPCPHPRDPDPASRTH

[2] = biological target: T2, Neutrophil elastase (Homo sapiens) (UniProt P08246); assay: Human leukocyte elastase (HLE) inhibitory activity is reported as kinetic constant (kobs/[I] - time dependent inhibition)
T2 sequence (whole entry): T1 sequence (P08246 whole entry)

half-life [1] [h] | Ki (Neutrophil elastase) [µM] | k obs / 1 [2] [M⁻¹ s⁻¹] | SMILES
 |  | 6350 | CCOC(=O)N1C(=O)[C@@H](CC)[C@@H]1Oc1ccc(C(=O)O)cc1
~2 |  |  | CC[C@@H]1C(=O)N(C(C)=O)[C@H]1OC(C)=O (racemic)

Further lines, the compound ahead of its results:

SMILES | half-life [1] [h] | Ki (Neutrophil elastase) [µM] | k obs / 1 [2] [M⁻¹ s⁻¹]
CC[C@@H]1C(=O)N[C@H]1Oc1ccc(C(=O)O)cc1 | ~32 | 290 | 
CC[C@@H]1C(=O)N(C(C)=O)[C@H]1Oc1ccc(C(=O)O)cc1 | ~9 |  | 6680
CC[C@@H]1C(=O)N(C(=O)NC)[C@H]1Oc1ccc(C(=O)O)cc1 |  | 16.5 | 
CC[C@@H]1C(=O)N(C(=O)NCc2ccccc2)[C@H]1Oc1ccc(C(=O)O)cc1 |  |  | 2480
